# Counter-ions that a name gives are not always drawn. Like-named read-outs stand apart in the source and are kept apart here. Marks after values point to notes of the source that are not given here.
# How the values were obtained:
# [1] = tested on: Vero cell; test: Cytotoxicity test on Vero cells (MTT); type: cell-based, African green monkey; settings: 72 h, Probit regression
# Method: Cytotoxicity test: drugs are diluted according to the concentrations indicated in Table 1 for the determination of cytotoxicity.
# The aforementioned drugs which are diluted with a maintenance solution (DMEM containing 2% or fetal bovine serum) to different concentrations are dropwise added to the Vero monolayer cell, each well is 0.2ml, there are 6 duplicate wells for each concentration, 6 wells for normal control (normal control group without adding drugs) and 6 wells for blank control (culture medium) are additionally provided, those are placed in an 5% CO2 incubator at 37° C. for culturing, observing CPE with an inverted microscope every day and recording. After 72 h, 20 μL (5 mg·mL^−1) of MTT solution is added in each well, and continues to be incubated for 4 h, the culture broth in each well is sucked and discarded, 100 μL of DMSO is added in each well, and is shaken for 5 min, measuring the OD value at 492 nm to calculate cell survival rate. In SPSS 18.0 statistical software, the cell survival rate is subjected to Probit regression analysis to calculate the maximum non-toxic concentration (TC0) and half toxic concentration (TC50) of the drug on the Vero cell.
# [2] = tested on: Adenovirus (AdV); test: Impact of the drug on virus-induced cytopathy (CPE, MTT), ADV; type: cell-based; settings: Vero cells, 100TCID50, drug at about the maximum non-toxic concentration, 72 h
# [3] = tested on: Enterovirus EV71; test: Impact of the drug on virus-induced cytopathy (CPE, MTT), EV71; type: cell-based; settings: Vero cells, 100TCID50, drug at about the maximum non-toxic concentration, 72 h
# [4] = tested on: Coxsackievirus B3 (CVB3); test: Impact of the drug on virus-induced cytopathy (CPE, MTT), CVB3; type: cell-based; settings: Vero cells, 100TCID50, drug at about the maximum non-toxic concentration, 72 h
# [5] = tested on: influenza virus infected mice; type: in vivo, Kunming mice; settings: 5 days
# [6] = tested on: parainfluenza virus infected mice; type: in vivo, Kunming mice
# [7] = tested on: influenza virus infected mice; type: in vivo, Kunming mice; settings: lung suspension, 5 days
# [8] = tested on: parainfluenza virus infected mice; type: in vivo, Kunming mice; remark: listed apart in the source
# [9] = tested on: influenza virus pneumonia model mice; test: Observation of lung histomorphology, influenza virus pneumonia mice; type: in vivo, Kunming mice; settings: 3.25 mg/kg/d to 13 mg/kg/d, fifth day, HE staining
# Method: A degreasing cotton is placed in a 200-300 mL beaker, in which a suitable amount of ether (just for making cotton wet) is added, the beaker containing the degreasing cotton is inverted upside down, the mice are extremely excited when anesthetized therein, and are made to lie on their backs when clearly weak, the mice are infected nasally with 15LD50 influenza virus a .d parainfluenza virus at 0.03 ml/nostril, and the virus suspension is replaced with normal saline in the normal control group.
# The administration is performed once a day for five consecutive days. The virus control group is drenched with normal saline of the same volume.
# Various mice lungs are respectively taken in the fifth day after treatment; general pathological changes of their viscera are observed by naked eyes and are recorded. The lungs are cleaned by rinsing with normal saline and moisture thereon is sucked up by using filter paper; a portion of the lung is fixed with 10% formaldehyde, paraffin-embedded, sliced and HE-strained; observation and photographing are performed under a microscope.
# [10] = tested on: parainfluenza virus pneumonia model mice; test: Observation of lung histomorphology, parainfluenza virus pneumonia mice; type: in vivo, Kunming mice; settings: 3.25 mg/kg/d to 13 mg/kg/d, fifth day, HE staining
# [11] = Solubility of the isolated solid; settings: water and ethanol
# [12] = tested on: Influenza virus; test: Impact of the drug on virus-induced cytopathy (CPE, MTT), influenza virus; type: cell-based
# [13] = tested on: Parainfluenza virus; test: Impact of the drug on virus-induced cytopathy (CPE, MTT), parainfluenza virus; type: cell-based; settings: Vero cells, 100TCID50, drug at about the maximum non-toxic concentration, 72 h
# [14] = tested on: Coxsackievirus A16 (CoxA16); test: Impact of the drug on virus-induced cytopathy (CPE, MTT), CoxA16; type: cell-based; settings: Vero cells, 100TCID50, drug at about the maximum non-toxic concentration, 72 h
# [15] = tested on: Respiratory syncytial virus (RSV); test: Impact of the drug on virus-induced cytopathy (CPE, MTT), RSV; type: cell-based; settings: Vero cells, 100TCID50, drug at about the maximum non-toxic concentration, 72 h
# [16] = tested on: Herpes simplex virus type-1 (HSV-1); test: Impact of the drug on virus-induced cytopathy (CPE, MTT), HSV-I; type: cell-based; settings: Vero cells, 100TCID50, drug at about the maximum non-toxic concentration, 72 h
# [17] = high dosage 13.0 mg/kg/d intragastric
# [18] = low dosage 3.25 mg/kg/d intragastric
# [19] = parainfluenza virus infected mice, high dosage 13.0 mg/kg/d intragastric, 5 days
# [20] = parainfluenza virus infected mice, low dosage 3.25 mg/kg/d intragastric, 5 days
Structure (SMILES),half toxic concentration (TC50) [1],the maximum non-toxic concentration (TC0) [1],"antiviral effective rate (ER %), ADV [2]","antiviral effective rate (ER %), EV71 [3]","antiviral effective rate (ER %), CVB3 [4]",solubility [11],"antiviral effective rate (ER %), Parainfluenza virus [13]","antiviral effective rate (ER %), CoxA16 [14]","antiviral effective rate (ER %), RSV [15]","antiviral effective rate (ER %), HSV-I [16]",further results
COc1ccc([C@H]2OCC3C2CO[C@H]3c2ccc(OC)c(OS(=O)(=O)O)c2)cc1OC (stereo partly shown) [forsythiaside sodium sulfate],685 µg/mL,0.128 g/L,20.91* %,50.21%,10.55%,soluble in water and ethanol,,,,,"Lung index (X ± S) [5, 17]: 1.1809 ± .057; Lung index inhibition rate (%) [5, 17]: 20.73%; Lung index (X ± S) [5, 18]: 1.344 ± 0.035; Lung index inhibition rate (%) [5, 18]: 9.69%; Lung index (X ± S) ([6]; mouse, in vivo): 1.303 ± 0.062; Lung index inhibition rate (%) ([6]; mouse, in vivo): 18.46%; Lung index (X ± S) [6, 19]: 1.331 ± 0.073; Lung index inhibition rate (%) [6, 19]: 16.73%; Lung index (X ± S) [6, 20]: 1.311 ± 0.049; Lung index inhibition rate (%) [6, 20]: 17.96%; Hemagglutination titer (InX) ([7]; high dosage 13.0 mg/kg/d): 20.07 ± 0.646; Hemagglutination titer (InX) ([7]; low dosage 3.25 mg/kg/d): 23.93 ± 1.392; Hemagglutination titer (InX) ([8]; lung suspension, parainfluenza virus infected mice, high dosage 13.0 mg/kg/d, 5 days): 19.82 ± 0.981; Hemagglutination titer (InX) ([8]; lung suspension, parainfluenza virus infected mice, low dosage 3.25 mg/kg/d, 5 days): 23.26 ± 0.991; Hemagglutination titer (InX) ([8]; mouse, in vivo): 21.01 ± 0.614; lung histology / pulmonary tissue pathology [9]: significantly improve the pulmonary tissue pathology; lung histology / pulmonary tissue pathology [10]: significantly improve the pulmonary tissue pathology"
"CCOC(=O)C1=C[C@@H](OC(CC)CC)[C@H](NC(C)=O)[C@@H](N)C1 [oseltamivir phosphate, Oseltamivir phosphate, reference compound]",832 µg/mL,0.28 g/L,10.31%,51.86%,1.64%,,94.52** %,2.95%,37.60%,66.56** %,"antiviral effective rate (ER %), Influenza virus ([12]; Vero cells, 100TCID50, drug at about the maximum non-toxic concentration, 72 h, MTT): 81.76** %"
"NC(=O)c1ncn([C@@H]2O[C@H](CO)[C@@H](O)[C@H]2O)n1 [ribavirin, Ribavirin, reference compound]",,,0.43%,4.25** %,13.44%,,97.56** %,0.70%,50.08* %,62.92** %,"antiviral effective rate (ER %), Influenza virus [12]: 57.49** %; Hemagglutination titer (InX) ([7]; 58.5 mg/kg/d): 21.13 ± 0.986; Hemagglutination titer (InX) ([8]; lung suspension, parainfluenza virus infected mice, 58.5 mg/kg/d, 5 days): 26.73 ± 1.193"
COc1ccc([C@H]2OCC3C2CO[C@H]3c2ccc(OC)c(OS(=O)(=O)O)c2)cc1OC.N (stereo partly shown),555 µg/mL,0.105 g/L,20.88* %,35.12%,7.10%,soluble in water and ethanol,,,,,

# Reference: patent US9670224B2, “Forsythiaside sulfate and derivatives thereof, preparation method and application thereof” (priority 2013, dated 2017)
